Values quoted from earlier work, collected in WO2011084962A1, “Analogs of dehydrophenylahistins” (Nereus Pharmaceuticals Inc, priority 2010, dated 2011).

Experiments:
[1] = tested on: cell cycle progression in the M phase
[2] = tested on: microtubule assembly
[3] = tested on: retinal neovascularization; conditions: occurs during proliferative retinopathy
[4] = tested on: VEGF induced retinal neovascularization; conditions: in vivo
[5] = tested on: choroidal neovascularization; conditions: in vivo
[6] = tested on: neovessels in non-neoplastic tissue; conditions: in vivo

SMILES | inhibition of cell cycle progression in the M phase [1] | effect on the microtubule assembly [2] | further results
CC(C)=CCc1[nH]c2ccccc2c1C[C@@H]1NC(=O)[C@@H]2CCCN2C1=O [tryprostatin B] | inhibited cell cycle progression in the M phase | affect the microtubule assembly | 
COc1ccc2c(C[C@@H]3NC(=O)[C@@H]4CCCN4C3=O)c(CC=C(C)C)[nH]c2c1 [tryprostatin A] | inhibited cell cycle progression in the M phase | affect the microtubule assembly | 
COc1ccc(/C=C\c2cc(OC)c(OC)c(OC)c2)cc1OP(=O)(O)O [CA-4P] |  |  | inhibition of retinal neovascularization [3]: inhibit the retinal neovascularization that occurs during proliferative retinopathy; suppression of the development of VEGF induced retinal neovascularization [4]: suppress the development of VEGF induced retinal neovascularization; inhibition of development and/or partial regression of choroidal neovascularization [5]: inhibit the development and/ or cause partial regression of choroidal neovascularization
COc1ccc(/C=C\c2cc(OC)c(OC)c(OC)c2)cc1O [Combretastatin A-4] |  |  | disruption of neovessels in non-neoplastic tissue [6]: cause the disruption of neovessels in non-neoplastic tissue
